The source of these data is EP0377967A2, “9-Aza-3-(oxa/thia)-bicyclo[3,2,1]nonane derivatives, process and intermediates for their preparation and pharmaceutical compositions containing them” (BEECHAM GROUP PLC, priority 1988, dated 1990).

This experiment deals with von Bezold-Jarisch reflex evoked by 5-HT. The experiment can be described thus: Antagonism of the von Bezold-Jarisch reflex. The format is in vivo. As to conditions: anaesthetised rat; dose of 1µg/kg i.v. As for the experimental part:
The compounds were evaluated for antagonism of the von Bezold-Jarisch reflex evoked by 5-HT in the anaesthetised rat according to the following method:
Male rats 250-350g, were anaesthetised with urethane (1.25g/kg intraperitoneally) and blood pressure and heart rate recorded as described by Fozard J.R. et al., J. Cardiovasc. Pharmacol. 2, 229-245 (1980). A submaximal dose of 5-HT (usually 6µg/kg) was given repeatedly by the intravenous route and changes in heart rate quantified. Compounds were given intravenously and the concentration required to reduce the 5-HT-evoked response to 50% of the control response (ED₅₀) was then determined.

Each structure is given as a SMILES string.

As for `COc1ccccc1NC(=O)NC1CC2COCC(C1)N2C` (stereo not drawn) [Example E3, endo-N-(9-Methyl-9-aza-3-oxabicyclo[3.3.1]nonan-7-yl)-N′-(2-methoxyphenyl)urea], the “activity (antagonism of the von Bezold-Jarisch reflex)” value is on record as “active”. For `CN1C2COCC1CC(NC(=O)c1nn(C)c3ccccc13)C2` (stereo not drawn) [Example E4, endo-N-(9-Methyl-9-aza-3-oxabicyclo[3.3.1]nonan-7-yl)-1-methyl-1H-indazol-3-carboxamide] the value was “active”; for `CN1C2COCC1CC(NC(=O)N1CC(C)(C)c3ccccc31)C2` (stereo not drawn) [Example E5, endo-N-(9-Methyl-9-aza-3-oxabicyclo[3.3.1]nonan-7-yl)-3,3-dimethyl-1-indoline carboxamide], “active”.
